Experimental findings from ChEMBL document CHEMBL5465560, “Selectivity Literature for EUbOPEN Chemogenomic Library” (2024) are described below.

The target of test [1] is T1, Serine/threonine-protein kinase greatwall (Homo sapiens) (UniProt Q96GX5).
T1 sequence (whole entry): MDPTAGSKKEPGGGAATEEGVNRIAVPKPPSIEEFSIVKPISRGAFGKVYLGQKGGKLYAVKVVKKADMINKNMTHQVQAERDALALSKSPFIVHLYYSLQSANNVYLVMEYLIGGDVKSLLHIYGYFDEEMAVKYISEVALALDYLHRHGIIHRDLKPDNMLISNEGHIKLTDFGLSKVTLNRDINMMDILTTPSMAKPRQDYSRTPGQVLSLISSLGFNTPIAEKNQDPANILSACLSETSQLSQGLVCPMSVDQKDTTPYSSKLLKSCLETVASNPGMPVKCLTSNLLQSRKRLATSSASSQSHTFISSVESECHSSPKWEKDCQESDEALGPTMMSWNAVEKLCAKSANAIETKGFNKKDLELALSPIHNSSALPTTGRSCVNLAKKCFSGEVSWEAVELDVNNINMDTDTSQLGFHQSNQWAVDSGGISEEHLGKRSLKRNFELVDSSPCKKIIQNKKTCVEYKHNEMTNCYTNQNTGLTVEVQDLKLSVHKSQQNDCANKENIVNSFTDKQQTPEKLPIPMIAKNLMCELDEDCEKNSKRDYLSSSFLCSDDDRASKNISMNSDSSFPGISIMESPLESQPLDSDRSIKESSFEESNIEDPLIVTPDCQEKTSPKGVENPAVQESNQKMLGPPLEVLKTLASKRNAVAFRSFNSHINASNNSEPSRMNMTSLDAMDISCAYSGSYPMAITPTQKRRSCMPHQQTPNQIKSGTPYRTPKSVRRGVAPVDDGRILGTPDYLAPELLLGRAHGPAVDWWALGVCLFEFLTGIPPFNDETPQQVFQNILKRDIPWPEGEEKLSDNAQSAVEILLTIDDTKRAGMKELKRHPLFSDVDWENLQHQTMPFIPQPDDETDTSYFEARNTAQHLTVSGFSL
Kind of test: Selectivity interaction (Kinase panel (KiNativ target engagement assay in Jurkat cells)) EUB0001635a MASTL. In kind it is cell-based. Conditions: at 1 µM.

The target in test [2] is T2, Ephrin type-A receptor 8 (Homo sapiens) (UniProt P29322).
T2 sequence (whole entry): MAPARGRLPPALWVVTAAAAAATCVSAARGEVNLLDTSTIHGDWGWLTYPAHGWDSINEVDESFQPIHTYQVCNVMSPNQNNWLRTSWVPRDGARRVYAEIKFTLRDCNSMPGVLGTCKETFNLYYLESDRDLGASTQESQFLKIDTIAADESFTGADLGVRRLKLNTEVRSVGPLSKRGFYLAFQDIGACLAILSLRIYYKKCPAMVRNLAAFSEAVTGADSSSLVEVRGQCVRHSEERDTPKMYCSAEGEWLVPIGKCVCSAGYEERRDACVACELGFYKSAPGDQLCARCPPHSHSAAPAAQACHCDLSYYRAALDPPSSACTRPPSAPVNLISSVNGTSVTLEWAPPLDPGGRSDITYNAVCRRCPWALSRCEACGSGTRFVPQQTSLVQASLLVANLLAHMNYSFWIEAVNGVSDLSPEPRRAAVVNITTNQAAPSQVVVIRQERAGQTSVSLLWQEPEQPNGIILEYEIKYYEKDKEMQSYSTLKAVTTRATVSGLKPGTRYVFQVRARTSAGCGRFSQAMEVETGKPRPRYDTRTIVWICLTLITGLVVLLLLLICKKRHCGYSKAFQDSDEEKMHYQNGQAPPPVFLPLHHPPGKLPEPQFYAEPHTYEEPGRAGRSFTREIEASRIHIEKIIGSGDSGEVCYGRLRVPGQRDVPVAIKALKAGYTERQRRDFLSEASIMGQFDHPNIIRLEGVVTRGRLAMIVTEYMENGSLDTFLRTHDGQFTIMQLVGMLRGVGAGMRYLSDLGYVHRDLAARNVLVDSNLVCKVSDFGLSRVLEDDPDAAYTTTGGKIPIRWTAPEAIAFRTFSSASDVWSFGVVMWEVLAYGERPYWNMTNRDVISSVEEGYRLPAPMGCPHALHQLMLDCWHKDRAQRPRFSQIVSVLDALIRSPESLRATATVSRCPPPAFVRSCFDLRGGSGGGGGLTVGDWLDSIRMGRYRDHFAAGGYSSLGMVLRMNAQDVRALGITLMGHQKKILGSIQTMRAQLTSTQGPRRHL
Kind of test: Selectivity interaction (KinomeScan (DiscoverX)) EUB0000607a EPHA8. The note with it: at 10 µM.

Test [3] deals with T3, Dual specificity mitogen-activated protein kinase kinase 3 (Homo sapiens) (UniProt P46734).
T3 sequence (whole entry): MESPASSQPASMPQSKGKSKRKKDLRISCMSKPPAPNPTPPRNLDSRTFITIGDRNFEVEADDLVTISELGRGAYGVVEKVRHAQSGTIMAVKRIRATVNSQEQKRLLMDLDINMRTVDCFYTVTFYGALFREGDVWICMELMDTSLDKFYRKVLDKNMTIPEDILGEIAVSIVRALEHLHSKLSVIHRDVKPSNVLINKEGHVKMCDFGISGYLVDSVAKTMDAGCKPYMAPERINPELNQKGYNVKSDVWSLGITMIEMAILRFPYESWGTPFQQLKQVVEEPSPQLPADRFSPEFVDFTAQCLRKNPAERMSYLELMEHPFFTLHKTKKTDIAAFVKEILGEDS
The experiment in a line: Selectivity interaction (KinomeScan (DiscoverX)) EUB0000655a MAP2K3. The note with it: at 10 µM.

Test [4] has as its target Cyclin-dependent kinase 5/CDK5 activator 1 (Homo sapiens) (UniProt Q00535+Q15078). The experiment in a line: Selectivity interaction (Millipore kinase profiler) EUB0000124b CDK5. Format: protein-complex assay. The note with it: at 10 µM.
The test system of test [5] is Receptor-type tyrosine-protein kinase FLT3 (Homo sapiens), P36888 [UNDEFINED MUTATION]. Kind of test: Selectivity interaction (KinomeScan (DiscoverX)) EUB0001049a FLT3. The note with it: at 1 µM.
Chain of Receptor-type tyrosine-protein kinase FLT3 (Homo sapiens), P36888 [UNDEFINED MUTATION] (P36888 whole entry, looked up, change not shown): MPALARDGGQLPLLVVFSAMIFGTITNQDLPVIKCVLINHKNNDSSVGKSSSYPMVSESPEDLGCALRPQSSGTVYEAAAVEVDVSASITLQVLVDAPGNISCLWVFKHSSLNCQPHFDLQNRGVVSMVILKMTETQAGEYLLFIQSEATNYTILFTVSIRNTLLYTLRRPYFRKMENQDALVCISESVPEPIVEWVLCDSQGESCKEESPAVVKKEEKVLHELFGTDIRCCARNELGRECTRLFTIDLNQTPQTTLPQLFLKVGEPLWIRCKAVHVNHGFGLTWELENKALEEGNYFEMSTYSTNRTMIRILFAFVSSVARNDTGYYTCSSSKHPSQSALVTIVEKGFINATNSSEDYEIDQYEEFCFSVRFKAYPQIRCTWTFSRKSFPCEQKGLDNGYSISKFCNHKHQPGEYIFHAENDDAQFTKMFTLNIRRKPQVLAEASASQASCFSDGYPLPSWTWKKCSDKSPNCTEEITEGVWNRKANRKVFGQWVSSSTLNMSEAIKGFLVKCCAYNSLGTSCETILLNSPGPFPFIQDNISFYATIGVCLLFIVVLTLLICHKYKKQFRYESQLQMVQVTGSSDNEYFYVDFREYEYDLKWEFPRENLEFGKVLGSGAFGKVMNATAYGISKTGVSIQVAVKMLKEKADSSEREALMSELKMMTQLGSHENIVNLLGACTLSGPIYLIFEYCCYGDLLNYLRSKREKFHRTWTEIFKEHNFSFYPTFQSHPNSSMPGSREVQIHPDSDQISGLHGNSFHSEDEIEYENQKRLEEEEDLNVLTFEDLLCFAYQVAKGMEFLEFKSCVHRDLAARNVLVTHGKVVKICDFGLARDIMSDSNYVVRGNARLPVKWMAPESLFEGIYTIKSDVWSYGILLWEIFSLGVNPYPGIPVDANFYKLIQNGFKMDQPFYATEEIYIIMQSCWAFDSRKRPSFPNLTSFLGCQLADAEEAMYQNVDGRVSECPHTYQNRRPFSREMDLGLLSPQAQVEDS
The target in test [6] is T4, Serine/threonine-protein kinase 3 (Homo sapiens) (UniProt Q13188).
T4 sequence (whole entry): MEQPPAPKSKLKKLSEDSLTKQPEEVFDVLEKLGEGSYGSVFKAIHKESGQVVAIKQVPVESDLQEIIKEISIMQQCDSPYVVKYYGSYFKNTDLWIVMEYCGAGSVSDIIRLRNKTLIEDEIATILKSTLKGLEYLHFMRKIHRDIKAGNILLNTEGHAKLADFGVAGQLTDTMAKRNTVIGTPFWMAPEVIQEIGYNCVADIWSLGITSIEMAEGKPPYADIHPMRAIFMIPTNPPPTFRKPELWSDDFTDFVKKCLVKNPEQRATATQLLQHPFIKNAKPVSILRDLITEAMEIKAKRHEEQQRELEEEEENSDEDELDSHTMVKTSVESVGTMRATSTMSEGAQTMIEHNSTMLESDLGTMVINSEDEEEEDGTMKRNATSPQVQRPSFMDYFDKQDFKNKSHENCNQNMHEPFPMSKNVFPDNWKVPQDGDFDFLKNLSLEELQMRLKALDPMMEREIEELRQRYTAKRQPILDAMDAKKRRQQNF
Kind of test: Selectivity interaction (KinomeScan (DiscoverX)) EUB0000092b STK3. The note with it: at 10 µM.

Test [7] has as its target Serine/threonine-protein kinase SIK3 (Homo sapiens) (UniProt Q9Y2K2). Kind of test: Selectivity interaction (KinomeScan (DiscoverX)) EUB0000595a SIK3. The note with it: at 10 µM.

Chain of Serine/threonine-protein kinase SIK3 (Homo sapiens) (Q9Y2K2 whole entry, looked up): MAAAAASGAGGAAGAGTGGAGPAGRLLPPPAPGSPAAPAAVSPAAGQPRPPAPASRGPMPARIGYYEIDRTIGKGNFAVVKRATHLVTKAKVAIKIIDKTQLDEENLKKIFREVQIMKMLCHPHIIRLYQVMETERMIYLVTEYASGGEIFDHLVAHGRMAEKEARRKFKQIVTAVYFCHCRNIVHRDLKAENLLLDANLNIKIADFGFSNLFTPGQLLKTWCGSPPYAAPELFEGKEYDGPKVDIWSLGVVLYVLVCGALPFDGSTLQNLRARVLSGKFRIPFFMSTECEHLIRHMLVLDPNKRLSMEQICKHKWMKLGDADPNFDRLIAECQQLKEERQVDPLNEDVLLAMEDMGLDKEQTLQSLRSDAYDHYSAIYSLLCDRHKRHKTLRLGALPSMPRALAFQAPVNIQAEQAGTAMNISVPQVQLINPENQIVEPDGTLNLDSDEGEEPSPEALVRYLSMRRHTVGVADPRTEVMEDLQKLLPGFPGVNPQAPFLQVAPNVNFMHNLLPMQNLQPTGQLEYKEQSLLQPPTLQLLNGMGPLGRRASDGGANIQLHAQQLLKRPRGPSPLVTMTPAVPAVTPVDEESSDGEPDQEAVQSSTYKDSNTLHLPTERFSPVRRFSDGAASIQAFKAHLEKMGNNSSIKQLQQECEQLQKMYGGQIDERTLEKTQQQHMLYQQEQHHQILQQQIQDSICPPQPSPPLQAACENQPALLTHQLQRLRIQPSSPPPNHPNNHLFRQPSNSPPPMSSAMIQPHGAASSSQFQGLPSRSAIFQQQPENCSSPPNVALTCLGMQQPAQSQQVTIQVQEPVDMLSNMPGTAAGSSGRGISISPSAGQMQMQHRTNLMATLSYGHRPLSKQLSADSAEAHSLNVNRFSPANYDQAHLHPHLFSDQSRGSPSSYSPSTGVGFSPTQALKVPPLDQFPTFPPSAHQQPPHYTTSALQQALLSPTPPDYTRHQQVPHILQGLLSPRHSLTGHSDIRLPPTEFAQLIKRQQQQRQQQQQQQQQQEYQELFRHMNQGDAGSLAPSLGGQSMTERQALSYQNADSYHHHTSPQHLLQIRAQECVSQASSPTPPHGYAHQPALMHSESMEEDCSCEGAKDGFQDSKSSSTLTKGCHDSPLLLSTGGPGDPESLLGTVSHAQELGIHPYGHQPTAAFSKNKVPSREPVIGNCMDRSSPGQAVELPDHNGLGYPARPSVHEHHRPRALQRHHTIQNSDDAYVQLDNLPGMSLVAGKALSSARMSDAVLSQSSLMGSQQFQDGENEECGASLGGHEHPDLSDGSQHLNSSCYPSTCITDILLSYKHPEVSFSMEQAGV
Chain of Cyclin-dependent kinase 5/CDK5 activator 1 (Homo sapiens) (Q00535 whole entry): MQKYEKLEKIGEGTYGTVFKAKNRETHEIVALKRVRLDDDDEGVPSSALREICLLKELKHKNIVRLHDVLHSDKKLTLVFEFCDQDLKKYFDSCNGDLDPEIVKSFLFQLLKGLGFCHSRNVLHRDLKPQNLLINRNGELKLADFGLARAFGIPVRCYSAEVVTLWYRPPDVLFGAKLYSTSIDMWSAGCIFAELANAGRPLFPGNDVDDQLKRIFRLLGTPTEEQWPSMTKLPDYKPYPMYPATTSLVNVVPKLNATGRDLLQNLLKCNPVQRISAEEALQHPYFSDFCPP
Chain of Cyclin-dependent kinase 5/CDK5 activator 1 (Homo sapiens) (Q15078 99-307 partner limits assumed): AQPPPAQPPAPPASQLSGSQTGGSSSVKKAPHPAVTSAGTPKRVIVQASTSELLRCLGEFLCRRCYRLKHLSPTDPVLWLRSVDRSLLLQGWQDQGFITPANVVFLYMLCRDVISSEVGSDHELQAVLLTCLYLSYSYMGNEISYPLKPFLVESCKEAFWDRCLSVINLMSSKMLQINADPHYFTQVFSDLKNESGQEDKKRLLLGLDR

As for `C=CC(=O)Nc1ccc(C(=O)Nc2[nH]nc3c2CN(C(=O)N[C@H](CN(C)C)c2ccccc2)C3(C)C)cc1`, in test [1], the % of engagement is 6.7%.
Compound `CNC(=O)Nc1ccc(-c2nc(N3CC4CCC(C3)O4)c3cnn(C4CCC5(CC4)OCCO5)c3n2)cc1` showed a % of control in test [2] of 81%.
As for `CN(C)CCOc1ccc(-c2nc(-c3ccncc3)c(-c3ccc4c(c3)CC/C4=N\O)[nH]2)cc1`, the % of control in test [3] was found to be 84%.
`CC(=O)Nc1cccc(-n2c(=O)n(C3CC3)c(=O)c3c(Nc4ccc(I)cc4F)n(C)c(=O)c(C)c32)c1` gave a % of control in test [4] of 102%.
`COc1cc(Nc2nc(C)cc(-c3cnn4nc(OC)ccc34)n2)cc(C(F)(F)F)c1` registered a % of control in test [5] of 73%.
Turning to `CCC(=O)N1CCN(c2ccc(-n3c(=O)ccc4cnc5ccc(-c6cnc7ccccc7c6)cc5c43)cc2C(F)(F)F)CC1`, the % of control in test [6] amounted to 24%.
For the compound `COCC(=O)NC/C=C/c1ccc2ncnc(Nc3ccc(Oc4ccc(C)nc4)c(C)c3)c2c1` [CP-724714], in test [7], the % of control is 76%.
